Several values for one entry are separate records, joined by “and”; a condition that tells them apart may be missing. Identical values can stand only once.
What was measured:
B16 melanoma cells = assay: B16 melanoma cell assay, clonogenic capacity in vitro after two-hour exposure; format: cell-based; details: 2-hour exposure; read-out: IC50: concentration which inhibits cloning efficiency of B16 melanoma cells by 50%
Method: The B16 melanoma cell assay measures the ability of a compound to inhibit the clonogenic capacity of cells in vitro following a two-hour exposure to the compound.
B16 melanoma (highly metastatic subline, F10) are used and maintained as monolayer cultures in Minimal Essential Media (Grand Island Biological Col., Grand Island, N.Y.) supplemented with 10% calf serum, 1% antibiotics in a 5% CO2 humidified incubator at 37° C. Asynchronous populations of cells are harvested and replated to 5000 cells/plate in sterile 60 mm×15 mm petri plates. Plates are incubated overnight to allow attachment of the cells to the plate. Cells are treated with a Formula (I) or Formula (II) compound/under sterile conditions, allowed to react for 2 hours followed by aspiration of medium. Plates are washed one time with 5 ml of phosphate buffered saline (PBS), followed by the addition of 5 ml of fresh medium. Plates are incubated for 5 days at 37° C. in a CO2 incubator. Viability is measured by the ability of a cell to form a colony of greater than 50 cells. Colonies are fixed with 0.5% crystal violet in 95% ethanol. Plates are dried and counted with a Biotran III Automatic Count Totalizer (New Brunswick Scientific Co., Edison, N.J.). Mean and standard deviation of triplicate samples are determined for each drug concentration. The data are analyzed plotting the log of the survival fraction (number of colonies in drug treated plates/number of colonies in controls) versus the drug concentration.
^a Concentration which inhibits cloning efficiency of B16 melanoma
cells by 50% on a 2hour exposure

[1] = tested on: HT-29 human colon carcinoma cells; assay: HT-29 human colon carcinoma cell killing in vitro; format: cell-based; details: 2-hour exposure
P388 leukemia = assay: ip P388 leukemia mouse model; format: in vivo, mice (B6D2F1)
Method: This tumor system is widely accepted as an antitumor agent screening tool because it is sensitive to virtually all of the clinically active antineoplastic agents; quantitative and reproducible; amenable for large-scale screening; and predictive for activity in other animal tumor models.
10^6 P388 leukemia cells are inoculated ip in B6D2F1 mice. Twenty-four hours later, if the tumor inoculum proves to be free of bacterial contamination (as determined by 24 hours incubation in thioglycollate broth), animals are randomized into groups of 6 and housed in shoebox cages. […] An equal volume of saline or water is added; if the drug comes out of solution an equal volume of Cremophor (polyethoxylated castor oil) is added and then saline or water, as to a concentration such that the desired dose is delivered in 0.5 ml. The final concentration of DMA, ethanol or Cremophor is 10 percent. Dilutions for lower doses are made with saline or water so that there is a decreasing proportion of organic solvents in the vehicle with decreasing dosage. […] Formulations are prepared immediately prior to injection. The Formula (I) and Formula (II) compounds are administered ip on Days 1 through 5 (i.e., treatment is initiated 24 hrs after tumor inoculation). Each experiment includes three groups of 6 animals as untreated controls and animals treated with a positive control, cisplatin, at two dose levels. Animals are weighed as a group on Days 1, 5 and 9 and average weight change (Δwt.) is used as a reflection of toxicity. Each experiment also includes an inoculum titration--groups of 8 mice inoculated ip with 10^5 to 10^0 P388 leukemia cells. The titration is used as a quality control check for the performance of the tumor model. Animals are monitored daily for mortality and experiments are terminated after 45 days. The endpoint is median survival time (MST) and increase in lifespan (ILS) which is the percentage of increase in MST relative to untreated controls.

[2] = tested on: M5076 reticulum cell sarcoma; assay: ip M5076 reticulum cell sarcoma in mice; format: in vivo, mice (B6D2F female)
Method: Another tumor model used for evaluation of tumor growth inhibiting drugs is intraperitoneally implanted M5076 reticulum cell sarcoma in mice. […] Drugs are administered ip. Daily treatment is begun 24 hours after implantation and is continued for ten days. The treatment regimen for M5076 is more prolonged than for P388 because of the slower growth rate and longer control survival time of the M5076 tumor. Compounds of Formula (I) and Formula (II) were evaluated in this assay. An evaluation of several compounds of Formula (I) in the M5076 reticulum cell sarcoma assay at their maximally tolerated dose (MTD) is set forth in Table III. An ILS of ≥25% indicates activity in this tumor model.
^(b) maximally tolerated dose for B6D2F female mice on an ip qDX10
^(c) maximum increase in lifespan produced in mice bearing ip M5076

B16 melanoma = assay: in vivo ip B16 melanoma assay; set-up: species or system mice (B6D2F1); details: ip qDX10
Method: Daily treatment is begun 24 hours after tumor implantation and is continued daily for ten (10) days. The route of drug administration is ip. The mice are monitored daily for survival for sixty (60) days. Antitumor activity is assessed by prolongation of median survival time. An ILS of ≥25% indicates activity in this tumor model.
^(b) maximally tolerated dose for B6D2F1 mice on an ip qDX10
^(c) maximum increase in lifespan produced in mice bearing ip B16

[3] = tested on: mammary adenocarcinoma 16/c; assay: sc mammary adenocarcinoma 16/c tumor model; format: in vivo, mice (C3H); details: for Inhibition: Day 21
Method: In this experiment, the tumor was implanted sc in C3H mice, and the drug was administered ip or iv on an intermittent treatment schedule, i.e., once on days 1, 5, 9, 13 and 17. Tumors were measured 3 weeks after implantation, and activity was assessed by degree of tumor growth inhibition.
*N.P. = Proportion of mice without palpable tumors on Day 21

[4] = tested on: M5076 reticulum cell sarcoma; details: 2 mg/kg ip, qD × 10
Method: B6D2F female mice are inoculated sc in the flank with 0.5 ml of a 10% (w:v) brei of M5076 prepared from pooled sc tumors excised at about Day 21 from C57Bl/6 donors. Treatment is initiated one day after tumor implantation, and is continued daily for 10 days. Tumors are measured 21 days after tumor implantation activity is determined by the degree of tumor growth inhibition.

[5] = solubility in 9:1 water:ethanol (HPLC of filtrate)
Method: Such solubility was determined as follows: The compound in question was dissolved or suspended in absolute ethanol (250 mg solid per 1.0 ml ethanol). To the resulting solution or suspension, water (9.0 times the volume of ethanol) was added. This suspension was stirred vigorously for 15 hours, then filtered through a 0.45 μm poly(tetrafluoroethylene) (PTFE) filter. […] The HPLC system was as follows:
Column PLRP-S, 5μm, obtained from Polymer Laboratories, Inc.
Mobile Phase 9:1 acetonitrile:0.1% tetra-n-butylammonium hydrogen sulfate (50° C., 1.0 ml-min-^-1)
Detection Ultraviolet (250 nm)

[6] = Experiment 1, ip, q4D × 5, 8 mg/kg
[7] = Experiment 2, ip, q4D × 5, 6 mg/kg
[8] = Experiment 2, iv, q4D × 5, 12 mg/kg
[9] = Experiment 3, ip, q4D × 5, 8 mg/kg

With `[Au+].[Cl-].c1ccc(P(CCP(c2ccccc2)c2ccccc2)c2ccccc2)cc1.c1ccc(P(CCP(c2ccccc2)c2ccccc2)c2ccccc2)cc1` [Compound No. 1, Bis[1,2-Bis(diphenylphosphino)ethane]Gold(I) Chloride] as the compound, how does the IC50 (B16 melanoma cells) read?
Its IC50 is 4.5 µM.

What about the “effectively killed HT-29 cells following exposure to concentrations” value [1] of the same compound?
Its value is under 10 µM.

What about the “MTD (maximally tolerated dose)” value (P388 leukemia; B6D2F female mice, ip qDX5) of the same compound?
The value was 2 mg/kg.

And the “ILS max (maximum increase in lifespan)” value (P388 leukemia; mice bearing ip P388 leukemia, ip days 1-5 at MTD, slash-separated figures are separate experiments)?
The value was 83 ± 24%.

And the “MTD (maximally tolerated dose)” value ([2]; B6D2F female mice, ip qDX10)?
Its value is 2 mg/kg.

What about the “ILS max (maximum increase in lifespan)” value ([2]; mice bearing ip M5076, ip qDX10 at MTD, slash-separated figures are separate experiments) of the same compound?
Its value is 56% and 83% and 52% and 47% and 49%.

And the “MTD (maximally tolerated dose)” value (B16 melanoma; B6D2F1 mice)?
Its value is 2 mg/kg.

And the “ILS (maximum increase in lifespan)” value (B16 melanoma; mice bearing ip B16 melanoma, slash-separated figures are separate experiments)?
Its value is 50% and 43% and 33% and 28% and 37%.

What about the “Mean Tumor Volume on Day 21” value [3, 6] of the same compound?
The value was 96 ± 143 mm^3.

And the “N.P. (proportion of mice without palpable tumors on Day 21)” value [3, 6]?
Its value is 4/7.

And the Inhibition [3, 6]?
Its Inhibition is 92%.

And the “Mean Tumor Volume on Day 21” value [3, 7]?
The value was 430 ± 291 mm^3.

What about the “N.P. (proportion of mice without palpable tumors on Day 21)” value [3, 7] of the same compound?
Its value is 0/8.

What about the Inhibition [3, 7] of the same compound?
Its Inhibition is 61%.

And the “Mean Tumor Volume on Day 21” value [3, 8]?
The value was 181 ± 163 mm^3.

And the “N.P. (proportion of mice without palpable tumors on Day 21)” value [3, 8]?
Its value is 2/8.

What about the Inhibition [3, 8] of the same compound?
Its Inhibition is 84%.

And the “Mean Tumor Volume on Day 21” value [3, 9]?
Its value is 0 mm^3.

What about the “N.P. (proportion of mice without palpable tumors on Day 21)” value [3, 9] of the same compound?
The value was 5/5.

What about the Inhibition [3, 9] of the same compound?
Its Inhibition is 100%.

What about the “% Inhibition of tumor growth (Day 21)” value [4] of the same compound?
Its value is 91% and 48%.

What about the “N.P. (proportion of mice without palpable tumor on Day 21)” value [4] of the same compound?
Its value is 2/7 and 1/7.

And the “solubility in 9:1 water:ethanol (in words)” value ([5]; 9:1 water:ethanol)?
The value was “true solution”.

What about the “Solubility in 9:1 Water:Ethanol” value ([5]; stirred 15 hours, 0.45 μm PTFE filter, HPLC) of the same compound?
The value was 170 µg/mL.

What about the “solubility in water (in words)” value ([5]; water) of the same compound?
Its value is “forms a suspension in water”.

Source: patent US5037812A, “Tumor cell growth-inhibiting pharmaceutical compositions containing phosphino-hydrocarbon-gold, silver or copper complexes” (priority 1986, dated 1991)
